Test results as given in patent US9522881B2, “Hydroxyindole carboxylic acid based inhibitors for oncogenic Src homology-2 domain containing protein tyrosine phosphatase-2 (SHP2)” (Indiana University Research and Technology Corporation, priority 2013, dated 2016).

How the values were obtained:
H1975 cells = assay: H1975 cell proliferation (MTT assay); format: cell-based; details: Homo sapiens, NCI-H1975, 48 h, treatment for 2 days
Description: Particularly, human non-small cell lung carcinoma cell line H1975 was obtained from the American Tissue Culture Collection and cultured at 37° C. and 5% CO2 in RPMI-1640 (Corning, Corning, N.Y.) supplemented with 10% fetal bovine serum. 3×10^3 cells were seeded in each well of 96-well plates. After treatment with compound 11a-1 for 2 days, cells were incubated with 50 μg/ml MTT (3-(4,5-Dimethylthiazol-2-yl)-2,5-diphenyltetrazolium bromide (Sigma, St. Louis, Mo.) for 3-4 hours. Then, the culture medium was removed, DMSO was added to dissolve the formazan crystals. Wells containing only media were used for background correction. The optical density was measured spectrophotometrically at 540 nm.

[1] = system: primary low density bone marrow cells bearing KITD814V; assay: Proliferation of primary bone marrow cells bearing KITD814V; format: cell-based, C57BL/6 mice; details: 1 μM and 5 μM, compared to II-B08
Description: FIG. 8B is a graph depicting WT hematopoietic stem and progenitor cells bearing KITD814V that were starved of serum and growth factors for 6 hours and subjected to proliferation assay in the presence or absence of indicated concentration of II-B08 or 11a-1 as analyzed in Example 6. Bars denote the mean thymidine incorporation (CPM±SD) performed in triplicate from one experiment. *p<0.05.
To further determine the effect of II-B08 and compound 11a-1 on primary bone marrow cells bearing oncogenic KITD814V, primary low density bone marrow cells from C57BL/6 mice were transduced with KITD814V and sorted cells were subjected to a proliferation assay in the presence or absence of the SHP2 inhibitors, II-B08 and compound 11a-1. To express WT KIT and KITD814V receptors in bone marrow cells, low density bone marrow cells were collected from WT mice, and pre-stimulated in IMDM supplemented with 20% FBS, 2% penicillin/streptomycin, and cytokines (100 ng/mL SCF, 100 ng/mL TPO, 50 ng/mL FLT3-L and 4 ng/mL IL-6) for 48 hours prior to retroviral infection on fibronectin fragments (Retronectin) in non-tissues culture plates. On the third day, cells were infected with 2 mL of high-titer retroviral supernatants for WT KIT or KITD814V prepared as described above. A second shot of viral infection was given 24 hours later. […]

PEZ = PEZ (Homo sapiens (Human), UniProt Q15678); assay: PTP selectivity panel, pNPP; format: biochemical, mammalian; details: pNPP at Km
PTPσ = PTPσ (Homo sapiens (Human), UniProt Q13332); assay: PTP selectivity panel, pNPP; format: biochemical, mammalian; details: pNPP at Km
PTP1B = PTP1B (Homo sapiens (Human), UniProt P18031); assay: PTP selectivity panel, pNPP; format: biochemical, mammalian
[2] = system: phosphorylation of SHP2, Akt and Erk1/2; assay: Phosphorylation of SHP2, Akt and Erk1/2 in 32D cells bearing KITD814V (western blot); format: cell-based; details: incubated 2 hours
Description: FIG. 8C depicts 32D myeloid cells bearing KITD814V that were starved of serum and growth factors for 6 hours and incubated with the indicated concentration of 11a-1 for 2 hours as analyzed in Example 6. After treatment, cells were lysed and equal amount of protein lysates were subjected to western blot analysis using indicated antibodies.

MKP5 = MKP5 (Homo sapiens (Human), UniProt Q9Y6W6); assay: PTP selectivity panel, pNPP; format: biochemical, mammalian; details: pNPP at Km
[3] = system: 32D myeloid cells bearing KITD814V; assay: Proliferation (thymidine incorporation) of 32D myeloid cells bearing KITD814V; format: cell-based
Description: (§1) FIG. 8A is a graph depicting 32D myeloid cells bearing wild-type (WT) KIT or KITD814V that were starved of serum and growth factors for 6 hours and subjected to proliferation assay in the presence or absence of the indicated concentration of II-B08 or 11a-1 as analyzed in Example 6. Assay was performed in the presence of IL-3 (10 ng/mL) for cells bearing WT KIT and in the absence of growth factors for cells bearing oncogenic KITD814V. Bars denote the mean thymidine incorporation (CPM±SEM) consolidated from four independent experiments performed in triplicate. *p<0.05.
(§2) To further determine the efficacy of compound 11a-1, the growth of oncogenic KITD814V bearing 32D myeloid cells in the presence of II-B08 and 11a-1 were compared. Specifically, the wild-type (WT) KIT and KITD814V were inserted into the bicistronic retroviral vector, MIEG3, upstream of the internal ribosome entry site (IRES) and the enhanced green fluorescent protein (EGFP) gene as previously described in Mali et al., 2012. Retroviral supernatants for transduction of 32D myeloid cells and primary hematopoietic stem and progenitor cells were generated using Phoenix ecotropic packaging cell line transfected with retroviral vector plasmids using a calcium phosphate transfection kit (Invitrogen, Carlsbad, Calif.). Supernatants were collected 48 hours after transfection and filtered through 0.45 μm membranes. 32D myeloid cells were infected twice at 24-hour intervals with 2 mL high/titer virus supernatant in the presence of 10 ng/mL IL-3 and 8 μg/mL polybrene. Forty-eight hours after infection, 32D cells expressing WT KIT or KITD814V receptors were sorted to homogeneity based on EGFP expression and utilized to perform all of the experiments.

PTPα = PTPα (Homo sapiens (Human), UniProt P18433); assay: PTP selectivity panel, pNPP; format: biochemical, mammalian; details: pNPP at Km
[4] = system: PMA-induced Erk1/2 phosphorylation; assay: PMA-induced Erk1/2 phosphorylation; format: cell-based
Description: To provide further evidence that the observed cellular effect of compound 11a-1 is SHP2 dependent, the effect of compound 11a-1 on PMA (phorbol 12-myristate 13-acetate)-induced Erk1/2 activation, which is SHP2 independent and instead depends on the activation of protein kinase C and Raf in a Ras-independent manner, was evaluated. Thus, SHP2 inhibitors would not be expected to affect PMA-induced Erk1/2 phosphorylation. Indeed, compound 11a-1 had no effect on PMA-induced Erk1/2 phosphorylation (FIG. 6D).

[5] = system: 32D myeloid cells bearing wild-type (WT) KIT; assay: Proliferation (thymidine incorporation) of 32D myeloid cells bearing WT KIT; format: cell-based; details: tested concentrations, with IL-3
Description: as §1
as §2, with “32D myeloid cells were infected twice at 24-hour intervals with 2 mL high/titer virus supernatant in the presence of 10 ng/mL IL-3 and 8 μg/mL polybrene. Forty-eight hours after infection, 32D cells expressing WT KIT or KITD814V receptors were sorted to homogeneity based on EGFP expression and utilized to perform all of the experiments.” left out

Chain of MKP5 (Q9Y6W6 whole entry, species assumed): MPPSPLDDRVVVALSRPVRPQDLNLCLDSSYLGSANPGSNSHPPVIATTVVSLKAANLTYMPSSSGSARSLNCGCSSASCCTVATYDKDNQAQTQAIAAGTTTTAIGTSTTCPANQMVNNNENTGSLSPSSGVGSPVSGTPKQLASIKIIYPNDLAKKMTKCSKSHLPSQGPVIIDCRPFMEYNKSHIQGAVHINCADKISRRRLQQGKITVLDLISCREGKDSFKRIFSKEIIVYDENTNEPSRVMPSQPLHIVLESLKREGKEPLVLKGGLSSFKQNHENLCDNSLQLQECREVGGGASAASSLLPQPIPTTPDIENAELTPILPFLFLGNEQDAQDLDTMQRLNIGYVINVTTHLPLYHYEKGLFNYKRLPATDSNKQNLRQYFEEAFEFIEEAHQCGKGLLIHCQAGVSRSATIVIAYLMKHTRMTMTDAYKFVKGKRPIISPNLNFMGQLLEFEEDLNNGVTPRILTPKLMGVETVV
Chain of PEZ (Q15678 whole entry, species assumed): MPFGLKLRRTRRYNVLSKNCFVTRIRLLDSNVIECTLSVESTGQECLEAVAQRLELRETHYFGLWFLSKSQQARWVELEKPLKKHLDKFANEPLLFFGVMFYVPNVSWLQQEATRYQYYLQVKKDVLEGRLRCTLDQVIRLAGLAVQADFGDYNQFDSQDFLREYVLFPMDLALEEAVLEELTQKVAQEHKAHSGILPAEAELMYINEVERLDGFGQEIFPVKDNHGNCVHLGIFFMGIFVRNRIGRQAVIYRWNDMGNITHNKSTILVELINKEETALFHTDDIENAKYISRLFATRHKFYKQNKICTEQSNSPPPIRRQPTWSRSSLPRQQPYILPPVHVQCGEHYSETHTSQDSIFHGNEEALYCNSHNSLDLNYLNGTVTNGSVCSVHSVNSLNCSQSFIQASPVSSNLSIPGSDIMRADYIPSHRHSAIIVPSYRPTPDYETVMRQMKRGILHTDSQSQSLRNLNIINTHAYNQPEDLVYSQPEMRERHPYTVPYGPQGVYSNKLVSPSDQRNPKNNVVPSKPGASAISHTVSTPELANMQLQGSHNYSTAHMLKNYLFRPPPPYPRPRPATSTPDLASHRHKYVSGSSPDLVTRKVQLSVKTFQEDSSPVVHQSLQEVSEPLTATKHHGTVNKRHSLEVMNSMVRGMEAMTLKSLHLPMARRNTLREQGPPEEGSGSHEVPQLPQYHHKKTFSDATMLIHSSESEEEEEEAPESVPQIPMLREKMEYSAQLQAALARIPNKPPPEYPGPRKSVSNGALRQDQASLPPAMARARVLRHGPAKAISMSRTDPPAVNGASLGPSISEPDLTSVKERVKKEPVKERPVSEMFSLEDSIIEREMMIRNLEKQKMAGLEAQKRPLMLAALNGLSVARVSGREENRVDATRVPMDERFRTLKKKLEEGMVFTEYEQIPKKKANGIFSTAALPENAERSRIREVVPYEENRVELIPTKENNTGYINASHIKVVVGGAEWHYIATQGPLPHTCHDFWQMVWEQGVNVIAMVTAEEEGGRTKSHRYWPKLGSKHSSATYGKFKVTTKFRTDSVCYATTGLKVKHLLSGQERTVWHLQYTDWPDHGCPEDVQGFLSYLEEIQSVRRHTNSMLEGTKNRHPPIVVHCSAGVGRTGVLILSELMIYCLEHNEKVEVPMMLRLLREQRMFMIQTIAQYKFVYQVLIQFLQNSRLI
Chain of PTP1B (P18031 whole entry, species assumed): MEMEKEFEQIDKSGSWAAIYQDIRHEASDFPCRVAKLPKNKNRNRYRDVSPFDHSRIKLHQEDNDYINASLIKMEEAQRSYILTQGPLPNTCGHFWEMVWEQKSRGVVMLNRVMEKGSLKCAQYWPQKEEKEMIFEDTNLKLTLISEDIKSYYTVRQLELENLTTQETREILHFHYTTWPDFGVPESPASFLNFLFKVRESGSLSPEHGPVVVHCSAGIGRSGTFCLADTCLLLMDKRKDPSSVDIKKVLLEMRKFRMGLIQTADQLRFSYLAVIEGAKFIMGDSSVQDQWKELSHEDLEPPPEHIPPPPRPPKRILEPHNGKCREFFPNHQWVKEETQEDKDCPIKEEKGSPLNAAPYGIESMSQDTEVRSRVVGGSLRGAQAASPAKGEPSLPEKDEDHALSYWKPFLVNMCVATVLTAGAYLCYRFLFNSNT
Chain of PTPα (P18433 whole entry, looked up): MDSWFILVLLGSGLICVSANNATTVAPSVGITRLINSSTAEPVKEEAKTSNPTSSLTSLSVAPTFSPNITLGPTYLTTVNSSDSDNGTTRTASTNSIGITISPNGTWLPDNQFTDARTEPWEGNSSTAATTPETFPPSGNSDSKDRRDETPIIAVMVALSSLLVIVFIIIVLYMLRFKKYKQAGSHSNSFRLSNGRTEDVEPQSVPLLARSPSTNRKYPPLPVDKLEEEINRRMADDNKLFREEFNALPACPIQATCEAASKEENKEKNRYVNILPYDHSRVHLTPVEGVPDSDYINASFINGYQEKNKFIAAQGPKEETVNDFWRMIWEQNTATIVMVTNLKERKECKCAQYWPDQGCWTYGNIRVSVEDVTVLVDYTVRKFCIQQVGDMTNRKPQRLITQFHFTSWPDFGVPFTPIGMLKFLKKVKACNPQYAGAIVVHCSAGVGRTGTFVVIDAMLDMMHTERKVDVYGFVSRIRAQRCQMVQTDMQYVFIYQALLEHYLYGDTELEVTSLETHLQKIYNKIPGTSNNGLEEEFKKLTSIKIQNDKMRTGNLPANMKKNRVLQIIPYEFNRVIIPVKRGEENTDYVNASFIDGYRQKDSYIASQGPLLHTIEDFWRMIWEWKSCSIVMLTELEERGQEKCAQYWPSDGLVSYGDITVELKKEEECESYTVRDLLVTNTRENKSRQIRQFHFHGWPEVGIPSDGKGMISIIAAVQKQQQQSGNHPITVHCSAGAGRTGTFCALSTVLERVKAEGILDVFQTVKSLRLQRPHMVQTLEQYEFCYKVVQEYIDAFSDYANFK
Chain of PTPσ (Q13332 30-1948): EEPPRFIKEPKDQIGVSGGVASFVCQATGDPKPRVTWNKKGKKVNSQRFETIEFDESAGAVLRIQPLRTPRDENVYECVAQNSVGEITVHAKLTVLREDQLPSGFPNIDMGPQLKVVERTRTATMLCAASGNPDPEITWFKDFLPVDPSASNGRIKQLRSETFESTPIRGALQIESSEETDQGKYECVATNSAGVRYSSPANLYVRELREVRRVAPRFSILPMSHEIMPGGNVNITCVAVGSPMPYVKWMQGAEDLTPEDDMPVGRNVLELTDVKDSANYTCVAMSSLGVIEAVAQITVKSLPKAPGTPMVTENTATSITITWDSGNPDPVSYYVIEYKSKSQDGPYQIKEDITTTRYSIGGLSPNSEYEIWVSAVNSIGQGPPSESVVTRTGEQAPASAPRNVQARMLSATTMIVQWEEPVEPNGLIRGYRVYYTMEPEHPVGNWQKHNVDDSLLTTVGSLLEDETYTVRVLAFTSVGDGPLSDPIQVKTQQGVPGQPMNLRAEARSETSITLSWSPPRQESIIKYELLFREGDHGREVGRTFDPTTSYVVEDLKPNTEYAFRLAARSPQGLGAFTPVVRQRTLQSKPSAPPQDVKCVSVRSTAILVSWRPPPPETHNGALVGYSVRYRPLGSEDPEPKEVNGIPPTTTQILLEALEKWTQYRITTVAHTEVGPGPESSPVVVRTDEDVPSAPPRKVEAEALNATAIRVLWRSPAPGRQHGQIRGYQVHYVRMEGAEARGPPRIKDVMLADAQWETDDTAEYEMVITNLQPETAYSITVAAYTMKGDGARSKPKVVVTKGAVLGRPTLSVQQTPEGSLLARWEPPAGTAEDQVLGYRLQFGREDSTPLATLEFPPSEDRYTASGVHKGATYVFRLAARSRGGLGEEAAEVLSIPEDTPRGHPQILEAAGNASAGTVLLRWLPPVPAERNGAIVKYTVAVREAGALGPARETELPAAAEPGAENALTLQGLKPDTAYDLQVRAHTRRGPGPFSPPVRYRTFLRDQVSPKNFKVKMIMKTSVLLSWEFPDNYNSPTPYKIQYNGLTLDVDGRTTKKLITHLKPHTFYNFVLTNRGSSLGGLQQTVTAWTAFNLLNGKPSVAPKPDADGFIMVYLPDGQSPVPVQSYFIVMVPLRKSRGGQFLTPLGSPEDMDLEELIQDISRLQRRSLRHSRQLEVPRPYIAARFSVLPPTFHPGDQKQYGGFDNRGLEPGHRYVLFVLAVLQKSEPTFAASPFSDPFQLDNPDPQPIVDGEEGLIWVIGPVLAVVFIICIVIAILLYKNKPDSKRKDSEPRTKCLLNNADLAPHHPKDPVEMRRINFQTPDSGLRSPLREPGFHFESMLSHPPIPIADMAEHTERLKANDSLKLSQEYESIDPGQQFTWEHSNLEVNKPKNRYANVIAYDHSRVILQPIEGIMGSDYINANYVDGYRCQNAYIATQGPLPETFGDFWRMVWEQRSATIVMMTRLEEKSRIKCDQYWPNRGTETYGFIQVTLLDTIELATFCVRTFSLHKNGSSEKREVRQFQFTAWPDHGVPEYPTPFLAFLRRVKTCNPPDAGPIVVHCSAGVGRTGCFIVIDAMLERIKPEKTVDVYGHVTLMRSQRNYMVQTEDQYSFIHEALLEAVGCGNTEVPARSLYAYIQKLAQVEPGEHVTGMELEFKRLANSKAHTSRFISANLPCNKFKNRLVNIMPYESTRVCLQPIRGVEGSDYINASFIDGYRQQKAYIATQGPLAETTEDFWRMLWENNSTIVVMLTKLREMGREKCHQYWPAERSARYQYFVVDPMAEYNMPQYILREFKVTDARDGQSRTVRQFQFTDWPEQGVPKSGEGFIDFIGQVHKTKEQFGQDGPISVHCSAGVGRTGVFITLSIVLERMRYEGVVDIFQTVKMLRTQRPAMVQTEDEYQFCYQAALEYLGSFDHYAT

Cn1c(-c2cccc(NC(=O)C(=O)Nc3ccc(-c4ccsc4)cc3)c2)c(I)c2cc(C(=O)O)c(O)cc21 [11a-1, 6-hydroxy-3-iodo-1-methyl-2-(3-(2-oxo-2-((4-(thiophen-3-yl)phenyl)amino)acetamido)phenyl)-1H-indole-5-carboxylic acid]
IC50 (H1975 cells): 0.17 ± 0.02 µM | growth of primary bone marrow cells bearing KITD814V [1]: significant reduced growth | IC50 (PEZ): 5.3 ± 0.2 µM | IC50 (PTPσ): 8.6 ± 0.4 µM | preference for SHP2 over PTP1B (PTP1B): 11 fold | phosphorylation of SHP2, Akt and Erk1/2 in KITD814V bearing 32D cells [2]: dose dependent inhibition | IC50 (MKP5): 2.9 ± 0.1 µM | ligand independent growth of KITD814V bearing 32D cells ([3]; 1 μM): significant inhibition | ligand independent growth of KITD814V bearing 32D cells ([3]; 5 μM): significant inhibition | IC50 (PTPα): > 100 µM | effect on PMA-induced Erk1/2 phosphorylation [4]: no effect | growth of WT KIT bearing 32D cells [5]: no significant suppression
